Columns and labels:
[1] = test system: industrial ethanol-producing yeast strain PE-2; experiment: Alcohol tolerance experiment: sugar (glucose) consumption of yeast cultures with added alcohols; type: cell-based, Saccharomyces cerevisiae; conditions: for Sugar Consumption: PE-2, YNB medium, 40 g/L glucose, 32° C., 8-9 hours, no consumption = lethal concentration; for Toxicity related to ethanol (times more inhibition than ethanol): ratio of sugar consumption inhibition per unit of alcohol to that of ethanol; for Sugar consumption inhibition per unit of alcohol regarding the Control (+) condition (no alcohol added) / Slope (linear regression of sugar consumption inhibition against alcohol concentration): samples two hours after inoculation; for Slope (linear regression of sugar consumption inhibition against alcohol concentration): alcohol concentration in g/L
Experimental: An alcohol tolerance experiment was conducted to understand the negative effects of n-propanol (i.e., 1-propanol), 2-propanol, and 2-butanol compared to ethanol in Saccharomyces cerevisiae. Ethanol, which is a natural product (or native product) produced during sugar-ethanol fermentation is generally well-tolerated by yeast such as S. cerevisiae. However, existing approaches to produce non-natural chemicals such as C3, C4, or C5 alcohols, ketones, organic acids, or other non-natural products (e.g., alcohols other than ethanol) by using genetically modified yeast are usually impacted negatively by the higher toxicity compared to ethanol of such non-natural chemicals or alcohols (e.g., n-propanol and 2-propanol) to the yeast cell-growth and/or performance.
Several concentrations of n-propanol, 2-propanol, 2-butanol and ethanol was tested in yeast cultures. The experiment was conducted using the industrial ethanol-producing yeast strain PE-2 in a 250 mL shaken flask with 50 mL of YNB medium having 40g/L glucose at 32° C. The culture was conducted during 8-9 hours with an initial OD600 nm=12 (OD=optical density). Samples were taken in adequate intervals and analyzed by HPLC to measure glucose, ethanol, n-propanol, 2-propanol and 2-butanol. The experiment was performed according to the parameters in Table 13, in duplicate. The conditions at which no sugar consumption was observed were considered a lethal concentration and were excluded from the analysis.
The percentage of glucose consumption inhibition was assessed for various concentrations of alcohols. Samples were tested two hours after inoculation. At this point, glucose had not been totally consumed.

[2] = test system: industrial ethanol-producing yeast strain PE-2; experiment: Laboratory simulation of yeast sugar-ethanol fermentation with exogenously added alcohols; type: cell-based, Saccharomyces cerevisiae; conditions: 1 L bioreactor, 224 g/L glucose, pH 4.5, 32° C., 70 hours; about 16 g alcohol added
Experimental: The experiment was performed using a 1 L bioreactor with 0.7 L as a final volume. The pH was controlled at 4.5 by adding NaOH 25% w/w, 32° C. temperature and 300 rpm stirring. The industrial ethanol-producing yeast strain used was PE-2, with an initial pitch of 0.7 g/L DWC and the culture medium was YNB without amino acids. The final sugar concentration was 224 g/L glucose. The experiment was performed under aseptic conditions. The bioreactor was first filled with 650 ml of YNB medium plus sugar, and after pH and temperature stabilization, a suspension of 50 mL with the yeast inoculum was added into the bioreactor. […] Each solution followed the profile: 10 hours since inoculation, 0.2 mL/min; from 11 hours to 15 hours, 0.4 mL/min; from 16 hours to 40 hours, 0.6 mL/min; and from 41 hours to 46 hours, 0.2 mL/min. This profile was added to simulate an ethanol production profile of PE-2 yeast. The fermentation was ended with 70 hours of fermentation run.

Question: Which “Sugar Consumption” value ([1]; alcohol 20 g/L) does the source give for 2-butanol here?
Answer: Its value is “Yes”.

Question: And the “Sugar Consumption” value ([1]; alcohol 40 g/L)?
Answer: Its value is “Yes”.

Question: And the “Sugar Consumption” value ([1]; alcohol 60 g/L)?
Answer: Its value is “No”.

Question: And the “Sugar Consumption” value ([1]; alcohol 80 g/L)?
Answer: Its value is “No”.

Question: What about the “Toxicity related to ethanol (times more inhibition than ethanol)” value [1] of the same molecule?
Answer: Its value is 2.94.

Question: What about the “Sugar consumption inhibition per unit of alcohol regarding the Control (+) condition (no alcohol added)” value [1] of the same molecule?
Answer: The value was 1.82% per g · L^−1 of alcohol.

Question: What about the “Slope (linear regression of sugar consumption inhibition against alcohol concentration)” value [1] of the same molecule?
Answer: Its value is 0.0182.

Question: CC(C)O [2-Propanol, isopropyl alcohol] was tested. Which “Sugar Consumption” value ([1]; alcohol 20 g/L) did it give?
Answer: Its value is “Yes”.

Question: And the “Sugar Consumption” value ([1]; alcohol 40 g/L)?
Answer: Its value is “Yes”.

Question: What about the “Sugar Consumption” value ([1]; alcohol 60 g/L) of the same molecule?
Answer: The value was “Yes”.

Question: And the “Sugar Consumption” value ([1]; alcohol 80 g/L)?
Answer: Its value is “Yes”.

Question: And the “Toxicity related to ethanol (times more inhibition than ethanol)” value [1]?
Answer: Its value is 1.45.

Question: And the “Sugar consumption inhibition per unit of alcohol regarding the Control (+) condition (no alcohol added)” value [1]?
Answer: The value was 0.90% per g · L^−1 of alcohol.

Question: What about the “Slope (linear regression of sugar consumption inhibition against alcohol concentration)” value [1] of the same molecule?
Answer: The value was 0.009.

Question: Which Ethanol produced [2] does the source give for CCO [Condition 1, ethanol] here?
Answer: Its Ethanol produced is 80.9 g.

Question: And the Ethanol yield [2]?
Answer: The Ethanol yield was 0.5 g/g.

Question: What about the Volumetric productivity [2] of the same molecule?
Answer: The Volumetric productivity was 1.4 g/Lh.

Question: CCO [Ethanol, ethanol] was tested. Which “Sugar Consumption” value ([1]; alcohol 20 g/L) did it give?
Answer: Its value is “Yes”.

Question: And the “Sugar Consumption” value ([1]; alcohol 40 g/L)?
Answer: The value was “Yes”.

Question: And the “Sugar Consumption” value ([1]; alcohol 60 g/L)?
Answer: Its value is “Yes”.

Question: What about the “Sugar Consumption” value ([1]; alcohol 80 g/L) of the same molecule?
Answer: The value was “Yes”.

Question: What about the “Sugar Consumption” value ([1]; alcohol 120 g/L) of the same molecule?
Answer: Its value is “Yes”.

Question: And the “Sugar consumption inhibition per unit of alcohol regarding the Control (+) condition (no alcohol added)” value [1]?
Answer: Its value is 0.62% per g · L^−1 of alcohol.

Question: And the “Slope (linear regression of sugar consumption inhibition against alcohol concentration)” value [1]?
Answer: Its value is 0.0062.

Question: For n-propanol, which “Sugar Consumption” value ([1]; alcohol 20 g/L) is on record?
Answer: Its value is “Yes”.

Question: What about the “Sugar Consumption” value ([1]; alcohol 40 g/L) of the same molecule?
Answer: The value was “Yes”.

Question: What about the “Sugar Consumption” value ([1]; alcohol 60 g/L) of the same molecule?
Answer: The value was “Yes”.

Question: And the “Sugar Consumption” value ([1]; alcohol 80 g/L)?
Answer: Its value is “No”.

Question: What about the “Toxicity related to ethanol (times more inhibition than ethanol)” value [1] of the same molecule?
Answer: Its value is 2.16.

Question: And the “Sugar consumption inhibition per unit of alcohol regarding the Control (+) condition (no alcohol added)” value [1]?
Answer: The value was 1.34% per g · L^−1 of alcohol.

Question: And the “Slope (linear regression of sugar consumption inhibition against alcohol concentration)” value [1]?
Answer: Its value is 0.0134.

Source: US20250075235A1, “PRODUCTION OF ETHANOL WITH ONE OR MORE CO-PRODUCTS IN YEAST” (Braskem S.A., priority 2020, published 2025)
